From US6569902B2, “Nitrone inhibition of cancer development” (Oklahoma Medical Research Foundation, priority 2000, dated 2003)

Legend:
[1] = tested on: livers of male Wistar rats fed the CDAA diet; assay: Example 2: oxidative hepatocyte injuries (8-OHdG, TBARS); format: in vivo, rat
Text: (§1) Animal experiment. After acclimation, rats were divided equally into 22 groups consisting of 5 animals each. Animals in group 1 received the CDAA diet alone. […] Groups 5-7, 8-10, 11-13 and 14-16 received the CDAA diet containing the low, middle, and high doses of 4-OHPBN, 3-OHPBN, 2-OHPBN and 2-SPBN, respectively. Group 17 received the CSAA diet alone. […] All animals were sacrificed by exsanguination under light ether anesthesia 16 weeks after commencement, and the livers excised. Slices 5-mm-thick were taken from the left lateral, median and right lateral lobes of the livers, fixed in 10% neutrally-buffered formalin for 24 hours and then embedded in paraffin. Five serial 4-μm-thick sections were prepared from each fixed liver slice and used for histological and immunohistochemical assessment as described below. The remaining portions of the livers were immediately frozen under liquid nitrogen and stored at −80° C. until use.
Determination of oxidative hepatocyte injuries. Levels of oxidative damage to the hepatocytes were determined on frozen liver samples. Oxidative damage to nuclear DNA was assessed as previously described, using the amount of 8-hydroxydeoxyguanosine (8-OHdG) to 10^6 deoxyguanosine (dG) ratio as a parameter (Nakae et al. 1995). Oxidative injury to extra-nuclear components was assessed as described elsewhere, by determining picomole malondialdehyde equivalent (MDA eq.) levels of 2-thiobarbituric acid-reacting substances (TBARS) per milligram protein (Nakae et al. 1990).
(§2) Statistics. Inter-group differences in quantitative data for multiple groups were recognized to be significant, when p values smaller than 0.05 were obtained by the Dunnett multiple comparison test employed after one-way analysis of variance to determine the variation among the group means followed by the Bartlett's test to determine the homogeniety of variance.

[2] = tested on: livers of male Wistar rats fed the CDAA diet; assay: Example 2: histological liver injury (fibrosis, fatty liver); format: in vivo, rat; conditions: high dose 0.090%, CDAA diet 16 weeks
Text: as §1
Histological and immunohistochemical assessments. Histological assessment was performed using sections routinely stained with hematoxylin/eosin and Masson's trichrome procedures. Gradation of fibrosis was quantitatively evaluated in groups 1, 4, 7, 10, 13, 16 and 17 by calculating the percent area occupied by collagen fiber stained blue by Masson's trichrome method using an IPAP image analyzing system (Sumika Technoservice Corp., City of Osaka, Osaka, Japan). GST-P-positive lesions were visualized immunohistochemically. Lesions consisting of more than 6 cells were quantified using the IPAP system as described elsewhere (Kishida et al. 2000). The amount of apoptosis and the cellular proliferative activity were determined in groups 1, 4, 7, 10, 13, 16 and 17, using the double staining techniques by combination of the GST-P immunohistochemistry as above with the in situ terminal deoxynucleotidyl transferase-mediated dUTP-biotin nick end-labeling method (Gold et al. 1994) and the enhanced polymer one-step staining method for proliferating cell nuclear antigen (Tsutsumi et al. 1995), respectively. Numbers of apoptotic and proliferating hepatocytes among the 1000-5000 hepatocytes in GST-P-positive lesions and 5000 hepatocytes in surrounding tissue were counted under light microscopy to obtain percentages that are hereafter referred as apoptotic and proliferative indices, respectively.
as §2

CC(C)(C)[N+]([O-])=Cc1ccccc1 [PBN, phenyl N-tert-butyl nitrone]
nuclear DNA 8-OHdG content increased by CDAA diet feeding ([1]; all doses, CDAA diet 16 weeks): significantly inhibited | TBARS level enhanced by CDAA feeding ([1]; high dose 0.090% only): significantly inhibited | grade of fibrosis versus group 1 [2]: significantly lower
